Test results as given in BindingDB's records for patent US10166249 (Bristol-Myers Squibb, 2019).

Molecular target: Sphingosine 1-phosphate receptor 1 (Homo sapiens, UniProt P21453)
Experiment: hS1P1 ERK Phosphorylation (S1P1 pERK)
Experimental: hS1P1/CHO cells were plated into BD Amine 384-well plates the day before the assay. On the day of the assay, growth medium was removed and replaced with serum-free medium (Ham's F-12 Invitrogen) and incubated for 2 hours. Test compounds pre-diluted in HBSS (Gibco)/20 mM HEPES (Gibco) were transferred to the cell plates and incubated for 7 minutes at 37° C. Cells were lysed in lysis buffer (Perkin Elmer) and phospho-ERK was measured using the SureFire pERK kit (Perkin Elmer) as described by the manufacturer. Data was plotted as percentage activation of the test compound relative to the efficacy of 10 μM S1P.

Sphingosine 1-phosphate receptor 1, sequence (P21453 whole entry): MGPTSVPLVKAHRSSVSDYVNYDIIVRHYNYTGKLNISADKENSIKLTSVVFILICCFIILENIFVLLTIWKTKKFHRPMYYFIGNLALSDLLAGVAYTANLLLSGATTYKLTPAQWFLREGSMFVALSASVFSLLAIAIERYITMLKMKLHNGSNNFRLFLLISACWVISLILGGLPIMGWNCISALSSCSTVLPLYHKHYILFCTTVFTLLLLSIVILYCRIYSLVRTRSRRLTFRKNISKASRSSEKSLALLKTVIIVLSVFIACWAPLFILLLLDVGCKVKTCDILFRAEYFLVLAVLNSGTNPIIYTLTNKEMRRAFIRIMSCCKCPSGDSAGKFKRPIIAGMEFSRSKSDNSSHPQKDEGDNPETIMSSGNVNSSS

EC50: < 10 nM
SMILES: CCSCC[C@H]1CCc2cc([C@H]3CC[C@](N)(COP(=O)(O)O)C3)ccc2C1 [US10166249, Example 532]
